*: point of attachment. NHNH2 = NN*
Tests used:
Assay type in all cases: cell-based
[1] = test system: ARPE19 cells; experiment: RLuc pDNA delivery, robotic library screening, ARPE19
[2] = test system: HCT116 cells; experiment: EGFP mRNA delivery, robotic library screening, HCT116
Method: Cells were seeded in a 96 well plate the day before the experiment at a concentration of 50,000 cell/mL (100 μL/w) in DMEM+10% FBS+1% Gln-Abt. For robotic library screening, the delivery of EGFP-mRNA (from TriLink, fully substituted with 5-methoxyuridine, capped and polyadenylated; TriLink, CleanCap® EGFP mRNA (5moU), ref. L-7201) in six different cell lines was performed. Amphiphilic molecule stock solutions were prepared in DMSO as described above and diluted in DMEM to afford a range of concentrations. The solutions of EGFP-mRNA/amphiphilic molecule complexes were freshly prepared prior to the transfection experiments. 35 μL of the corresponding amphiphile were added to 10 μL of a solution of EGFP-mRNA at 10 ng/μL in DMEM. The mixture was shaken for 30 min at room temperature before the addition to the cells. The cell medium was aspirated, and cells were washed with PBS twice. Cells were covered with 39 μL of DMEM and 11 μL of the complex's solution were added to the cells and incubated for 4 h (final concentration of peptide=2.5, 5 and 10 μM; final concentration of EGFP-mRNA=25 ng/well). After the incubation, the medium was replaced by 100 μL of fresh DMEM supplemented with 10% FBS. The total EGFP fluorescence was quantified after 72 h in a well plate reader. Amphiphile transfection efficiency was compared and normalized to Lipofectamine® MessengerMax efficiency (value of 1 in Tables 1-5 and 7; double underlined numbers). All experiments were done in triplicate.
(§1) Tables 1-7: RLuc (pDNA) or EGFP (mRNA) expression levels were normalized to Lipofectamine reagents (value=1) and expressed as fold-times signal increase. In the case of siRNA, the siRNA treated cells fluorescence was compared with siMOCK control fluorescence, while Cas9-RNP mediated knockout was measured against the fluorescence of untreated cells. In both siRNA and Cas9-RNP, values are expressed as % fluorescence reduction. Amphiphile concentration was 5 μM in all cases. All experiments were performed in triplicate.
Tables 14-19 show the mean (triplicates) fluorescence intensity measured after the transfection of EGFP mRNA by different amphiphiles at different concentrations in a variety of cell lines. Background fluorescence values, accounted by untreated control cells, were subtracted for processing.

[3] = test system: Hela cells expressing EGFP; experiment: Cas9-RNP delivery against EGFP (gene editing, plate reader), HeLa; details: for % GFP silencing due to gene editing (Cas9-RNP): HeLa
Method: To generate an EGFP expressing HeLa cell line, HeLa cells were transfected with EGFP pDNA (pEGFP-C1, Clontech) and stable transfectants were selected with 400 μg/mL of G-418 (Millipore). Green clones were selected by epifluorescence microscopy and tested for EGFP expression stability through several passages. […] All other EGFP-expressing cell lines were obtained in a similar way from parent non-EGFP-expressing cell lines.
Cells expressing EGFP were seeded in a 96 well plate the day before the experiment at a concentration of 50,000 cell/mL (100 μL/w) in DMEM+10% FBS+1% Gln-Abt. For robotic library screening, the delivery of Cas9-RNP against EGFP (RNP designed to knock-out the gene encoding for the enhanced green fluorescent protein (EGFP)) was performed. For RNP assembly, 9.2 μL of crRNA and 9.2 μL of tracrRNA were mixed in 211.6 μL of Nuclease-Free Duplex Buffer (IDT), incubated for 5 min at 95° C. and slowly cooled at rt (see I. Lostalé-Seijo, et al. Peptide/Cas9 nanostructures for ribonucleoprotein cell membrane transport and gene edition, Chem. Sci., 2017). Cas9 protein was dissolved in DMEM at a final concentration of 4 μM and equal volumes of the RNA complex and Cas9 were mixed and incubated for 5 min at rt. 75 μL of the corresponding amphiphile concentrations were added to 5 μL of RNP at 2 μM. The mixture was shaken for 30 min at room temperature before the addition to the cells. The cell medium was aspirated, and cells were washed twice with PBS. Cells were covered with 30 μL of DMEM and 20 μL of the RNP/amphiphile complexes were added to the cells (final peptide concentrations=2.5, 5 and 10 μM; final Cas9-RNP concentration=50 nM) and incubated for 4 h. After the incubation, the medium was replaced by 100 μL of fresh DMEM supplemented with 10% FBS. The total EGFP fluorescence was quantified after 72 h in a plate reader (FIG. 2, Table 1 (right) and Table 6). All experiments were done in triplicate.
as §1
Tables 26-31 show the mean (triplicates) percentage of gene editing, accounted by GFP fluorescence intensity decrease (% of reduction), measured after the transfection of Cas9-RNP by different amphiphiles at different concentrations in a variety of cell lines. Background values, accounted by untreated control cells, were subtracted for processing.

Ac-RK*LRRK*LRK*-NH2 (Ac-RK(NHNH2)LRRK(NHNH2)LRK(NHNH2)-NH2; not fully specified; printed as Ac-RK*LRRK*LRK*-NH2; also: K*2,K*6,K*9: native or modified lysine (ε-amide to a linker)) [Peptide 9.3]
mean luminescent intensity (RLuc pDNA) ([1]; Myristoleyl, 5 μM): 1400 RLU
mean luminescent intensity (RLuc pDNA) ([1]; Myristoleyl, 10 μM): 6498 RLU
mean luminescent intensity (RLuc pDNA) ([1]; Myristoleyl, 15 μM): 1695 RLU
mean luminescent intensity (RLuc pDNA) ([1]; Palmitoleyl, 15 μM): 7259 RLU
mean luminescent intensity (RLuc pDNA) ([1]; Petroselinyl, 5 μM): 1052 RLU
mean luminescent intensity (RLuc pDNA) ([1]; Petroselinyl, 10 μM): 39447 RLU
mean luminescent intensity (RLuc pDNA) ([1]; Petroselinyl, 15 μM): 55918 RLU
mean fluorescence intensity (EGFP mRNA) ([2]; Dodecanal, 5 μM): 526
mean fluorescence intensity (EGFP mRNA) ([2]; Myristoleyl, 2.5 μM): 2151
mean fluorescence intensity (EGFP mRNA) ([2]; Oleyl, 2.5 μM): 1067
mean fluorescence intensity (EGFP mRNA) ([2]; Oleyl, 5 μM): 910
mean fluorescence intensity (EGFP mRNA) ([2]; Oleyl, 10 μM): 1044
mean fluorescence intensity (EGFP mRNA) ([2]; Petroselinyl, 5 μM): 919
mean fluorescence intensity (EGFP mRNA) ([2]; Petroselinyl, 10 μM): 1252
percentage of gene editing, GFP fluorescence intensity decrease (% of reduction) ([3]; Dodecanal, 5 μM, Hela cells): 25%
percentage of gene editing, GFP fluorescence intensity decrease (% of reduction) ([3]; Dodecanal, 10 μM, HeLa cells): 61%
percentage of gene editing, GFP fluorescence intensity decrease (% of reduction) ([3]; Dodecanal, 15 μM, Hela cells): 80%
% GFP silencing due to gene editing (Cas9-RNP) ([3]; 5 μM, Dod tail): 80%
% GFP silencing due to gene editing (Cas9-RNP) ([3]; 5 μM, Pal tail): 77%
percentage of gene editing, GFP fluorescence intensity decrease (% of reduction) ([3]; Myristoleyl, 5 μM, HeLa cells): 14%
percentage of gene editing, GFP fluorescence intensity decrease (% of reduction) ([3]; Myristoleyl, 15 μM, Hela cells): 81%
percentage of gene editing, GFP fluorescence intensity decrease (% of reduction) ([3]; Oleyl, 5 μM, HeLa cells): 11%
percentage of gene editing, GFP fluorescence intensity decrease (% of reduction) ([3]; Oleyl, 10 μM, HeLa cells): 26%
percentage of gene editing, GFP fluorescence intensity decrease (% of reduction) ([3]; Palmitoleyl, 10 μM, HeLa cells): 44%
percentage of gene editing, GFP fluorescence intensity decrease (% of reduction) ([3]; Palmitoleyl, 15 μM, Hela cells): 77%
percentage of gene editing, GFP fluorescence intensity decrease (% of reduction) ([3]; Petroselinyl, 10 μM, Hela cells): 49%
percentage of gene editing, GFP fluorescence intensity decrease (% of reduction) ([3]; Petroselinyl, 15 μM, Hela cells): 77%

Ac-RK*LRRLLRK*-NH2 (Ac-RK(NHNH2)LRRLLRK(NHNH2)-NH2; not fully specified; printed as Ac-RK*LRRLLRK*-NH2; also: K*2,K*9: native or modified lysine (ε-amide to a linker)) [Peptide 9.2]
mean luminescent intensity (RLuc pDNA) ([1]; Myristoleyl, 5 μM): −374 RLU
mean luminescent intensity (RLuc pDNA) ([1]; Myristoleyl, 10 μM): −528 RLU
mean luminescent intensity (RLuc pDNA) ([1]; Myristoleyl, 15 μM): −547 RLU
mean fluorescence intensity (EGFP mRNA) ([2]; Dodecanal, 5 μM): 438
mean fluorescence intensity (EGFP mRNA) ([2]; Myristoleyl, 2.5 μM): 1498
mean fluorescence intensity (EGFP mRNA) ([2]; Petroselinyl, 5 μM): 662
percentage of gene editing, GFP fluorescence intensity decrease (% of reduction) ([3]; Dodecanal, 5 μM, Hela cells): 6%
percentage of gene editing, GFP fluorescence intensity decrease (% of reduction) ([3]; Dodecanal, 10 μM, HeLa cells): 14%
percentage of gene editing, GFP fluorescence intensity decrease (% of reduction) ([3]; Dodecanal, 15 μM, Hela cells): 47%
percentage of gene editing, GFP fluorescence intensity decrease (% of reduction) ([3]; Myristoleyl, 5 μM, HeLa cells): −12%
percentage of gene editing, GFP fluorescence intensity decrease (% of reduction) ([3]; Myristoleyl, 15 μM, Hela cells): 52%

Reference: patent US20250304623A1, “PEPTIDES FOR INTRACELLULAR DELIVERY” (UNIVERSIDADE DE SANTIAGO DE COMPOSTELA, priority 2022, published 2025)
